Results as given in patent US12005142B2, “Sustained-release compositions comprising a therapeutic agent for treating depression or anxiety and uses thereof” (TAIWAN LIPOSOME CO., LTD., priority 2018, dated 2024).
Counter-ions that a name gives are not always drawn. Like-named read-outs stand apart in the source and are kept apart here.

Assays:
[1] = free ketamine IV infusion 10 mg/kg/min over 5 min (50.0 mg/kg), Wistar rats; cited from earlier work
[2] = PK study of liposomal ketamine formulation and free ketamine after single subcutaneous injection
Protocol: Blood samples were collected at 15 min, 0.5, 1, 2, 4, 6, 8, 24 and 48 hours post-injection.

[3] = three infusions per week; eight of nine subjects; cited from earlier work
[4] = cited from earlier work
[5] = oral administration; cited from earlier work
[6] = free ketamine, intraperitoneal injection in rat; cited from earlier work
[7] = cited from earlier work; remark: listed apart in the source
[8] = 3 intravenous infusions, 3-5 days interval; cited from earlier work
[9] = intravenous; of the eight patients enrolled; cited from earlier work
[10] = female, Sprague-Dawley, rat, plasma, sc, 5 mg/kg
[11] = free ketamine SC 5.0 mg/kg, rat plasma

Structure (SMILES)	t1/2 [1]	AUC(0-inf) [2, 10]	AUC(0-t) [2, 10]	Cmax [2, 10]	half-life [2, 10]	AUC0-inf/dose [2, 11]	AUC0-t/dose [2, 11]	Cmax/dose [2, 11]	time post injection at which ketamine was undetectable in plasma ([2]; free ketamine SC, FIG. 1)	time to relapse after the final intravenous infusion [3]	patients in whom the therapeutic response was maintained ([4]; for a week after a single intravenous infusion)	patients with >50% decrease in Hamilton Depression Rating Scale (HDRS) score ([4]; one day after a single intravenous infusion, 17 patients)	patients showing improvement of mood symptoms [5]	half-life [6]	oral bioavailability [7]	persistence of clinical improvement following the final infusion [8]	patients remitted to the nondepressed range (MADRS score 10) [9]	patients with a 50% or greater reduction in MADRS scores [9]
CNC1(c2ccccc2Cl)CCCCC1=O (stereo not drawn) [Free Ketamine, ketamine hydrochloride]	37.8 min	314 ng·h/mL	305 ng·h/mL	190 ng/mL	46.2 min	62.9	61.0	38.0	4 h	≤ 19 days	35%	71%	approximately 30%	1.3 h	17%			
CN1[C@@H]2C[C@@H](OC(=O)[C@H](CO)c3ccccc3)C[C@H]1[C@@H]1O[C@@H]12 [Free Scopolamine, scopolamine hydrobromide trihydrate]																more than 2 weeks	3	five
